pIC50: −log10 of the molar value. Structures can show the parent of a compound that is named as a salt. Where two headings read alike, the source gives them in different places.
Tests used:
[1] = system: Diet Induced Obese (DIO) C57BL/6 mice; test: 10 day DIO mouse model, weight loss vs. vehicle; assay type: in vivo; settings: 240 h, 0.3 mpk sc once a day for 10 days
Excerpt: The objective of this study design was to investigate the efficacy of disclosed compounds in a 10 day DIO mouse model. Effects on body weight, food intake, hematology and blood chemistry were the primary readouts of this study design. Male, Diet Induced Obese (DIO) C57BL/6 mice, 19-21 weeks of age (13-15 weeks on high fat diet) were ordered from a certified vendor and upon receipt were housed on irradiated corncob bedding in micro-isolator cages on a 12-hour light-dark cycle (0700-1900) at 68-74° F. and 30-70% humidity. Mice were fed Research Diets D12492 (60% Kcal fat, 20% Kcal carbohydrate and 20% protein) and provided water ad libitum. DIO mice were received and housed in the facility for approximately two weeks prior to the start of test article administration. On Day −4 or −3, mice were randomized into study groups based on body weight and body weights were continued to be recorded daily for the duration of the study. Daily food intake was assessed starting on Study Day −2 by weighing of the food with hopper together to avoid loss of food in transfer.
(§1) Compounds were formulated into a 100% DMSO stock (at 9 mg/mL) prior to the start, and further diluted into the target working concentration using the vehicle of 10% DMSO in water. Prior to test article administration, starting on Day −3 a dosing acclimation occured with all animals receiving a subcutaneous injection of vehicle (10% DMSO) only for 3 days. Starting on Day 1, test compounds or vehicle were administered based on individual body weight, subcutaneously, once a day for 10 days. All mice were sacrificed on Day 11, 24 hours following the final dosing on Day 10. After sacrifice, whole blood was collected and analyzed for hematology and blood chemistry parameters.
(§2) Compounds were tested for weight loss vs. vehicle at 0.3 and 1.0 mpk sc (mg per kg animal weight delivered subcutaneously), and the results are shown in Table 2 below.

[2] = system: pregnant Sprague Dawley rats (embryo/fetal development); test: Rat embryofetal development study; assay type: in vivo; settings: 6 mpk subcutaneously once every three days, Gestation Days 6-18, pregnant rats
Excerpt: Study Summary Rat Embryofetal:
The objective of this study design was to evaluate the potential effects of disclosed compounds on embryo/fetal development when given subcutaneously to pregnant rats once every three days during the critical period of organogenesis (Gestation Days 6-18). Female, Sprague Dawley rats, approximately 10 weeks of age, time bred, were ordered from a certified vendor and housed individually housed in stainless steel cages suspended over flush pans, on a 12-hour light-dark cycle (0700-1900) at 20-26° C. and 30-70% humidity. Rats were fed a standard rodent chow and provided water ad libitum. Rats were received and housed in the facility for a period of approximately 1 to 2 days.
Compounds were formulated using 100% DMSO mixed in Sterile Water for Injection, resulting in 2% DMSO solution in water. If necessary, due to limited solubility of a test article, a higher percentage of DMSO solution in water was used. Groups of 8 mated and presumed pregnant female rats were given subcutaneous doses of vehicle or test article, once every three days, beginning on Gestation Day 6 and ending on Gestation Day 18 (Days 6, 9, 12, 15, and 18), maintained two more days, and then euthanized and necropsied on Gestation Day 20. Body weights was recorded for all animals on Gestation Days 5 (purpose of randomization), 6, 9, 12, 15, 18, and 20 (scheduled euthanasia). Food consumption by weight was recorded on Gestation Days 6, 9, 12, 15, 18, and 20 (scheduled termination).
At necropsy, the dams were examined visually for external abnormalities including palpable masses. The abdominal, thoracic, and cranial cavities and their contents were examined for abnormalities and findings will be recorded. The reproductive tract were examined to record the number of ovarian corpora lutea, the number and location of uterine implantation sites noting the position of the cervix, and the number of early resorptions, late resorptions, live fetuses, and dead fetuses. For dead fetuses and late resorptions, crown-to-rump length and weight were recorded, if possible, and the fetus was discarded. For viable fetuses, weight, sex, and grossly visible external abnormalities were recorded.

recombinant human MetAP2 = target: T1, recombinant human MetAP2 (Homo sapiens, UniProt P50579); test: Inhibition of recombinant human MetAP2 activity (MAS peptide / amino acid oxidase / Amplex assay); assay type: biochemical
T1 construct: Flag; made in house
T1 sequence (P50579 whole entry): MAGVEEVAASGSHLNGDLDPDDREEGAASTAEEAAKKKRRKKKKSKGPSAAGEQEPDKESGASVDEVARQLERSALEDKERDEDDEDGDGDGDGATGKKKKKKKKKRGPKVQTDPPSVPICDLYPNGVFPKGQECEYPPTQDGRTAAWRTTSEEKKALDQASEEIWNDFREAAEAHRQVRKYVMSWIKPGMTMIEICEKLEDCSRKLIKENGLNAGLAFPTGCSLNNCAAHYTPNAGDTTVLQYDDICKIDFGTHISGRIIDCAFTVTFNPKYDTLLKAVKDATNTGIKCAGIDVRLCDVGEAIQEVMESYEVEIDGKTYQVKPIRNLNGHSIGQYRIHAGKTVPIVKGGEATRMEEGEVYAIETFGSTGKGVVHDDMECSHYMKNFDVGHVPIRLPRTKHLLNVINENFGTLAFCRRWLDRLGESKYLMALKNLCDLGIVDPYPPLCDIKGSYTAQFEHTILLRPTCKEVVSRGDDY
Description: Compounds are tested for their capacity to inhibit recombinant human MetAP2 activity using the following assay.
Flag tagged Human recombinant MetAP2 expressed and isolated for use as the enzyme source. 10 mM stock solutions of compounds were prepared in 100% DMSO and further diluted in 100% DMSO required concentration to 1 mM stocks. The stock compound solutions and DMSO vehicle controls were diluted to target final compound concentrations using assay buffer to a final concentration of 50 mM HEPES containing 100 mM NaCl, pH adjusted to 7.5. The MAS peptide was formulated to a 7.5 mM stock in distilled water and prior to use further diluted 1:4. […] 40 μl of enzyme was mixed with 100 μl of MnCl2 then further diluted in assay buffer to a final concentration of 16 μg/ml. To test for compound effect on MetAP2 enzyme activity, 5 μl of test compound, 10 μl of MAS substrate/amino acid oxidase mixture, 10 μl of MetAP2 was added to test wells in a 384 well black plate with blank wells containing no enzyme, replaced with 10 μl of assay buffer. All compounds were tested in duplicate on two occasions on the same day.
The plate was sealed with a TopSeal A cover and mixed briefly on an orbital mixer at 900 rpm. The plate was incubated for a further 25 minutes at 25° C. A 5× stock of Amplex buffer was prepared (0.25M sodium phosphate, pH 7.4) and stored at 4° C. When preparing for use the stock was diluted with distilled water. […] Horse radish peroxidase was diluted in […] of Amplex buffer, 100 μl of this was combined with 50 μl of Amplex Ultrared in […] of 1× Amplex buffer to generate sufficient detection reagent for a 384 well plate. 25 μl detection reagent was added to each well of the test plate, which was re-sealed and mixed briefly on an orbital shaker. The plate was transferred to an Envision Multi-label reader and RFU measured corresponding to excitation 531 nm and emission 595 nm. At the end of the MetAP2 incubation 25 μl Amplex/HRP mixture per well was added and the plate read plate on a plate reader.

[3] = system: rat DIO model (Sprague Dawley rats on high fat diet); test: 11 day rat DIO model, weight loss vs. vehicle; assay type: in vivo; settings: for inhibition in vivo at 0.3 mg/kg: Rattus norvegicus, 264 h, 0.3 mpk sc once a day for 11 days; for Rat @ 1.0 mpk sc (%): 1.0 mpk sc once a day for 11 days
Excerpt: The objective of this study design is to investigate the efficacy of disclosed compounds in an 11 day rat DIO model used to screen compounds for pharmacologic efficacy on endpoints related to obesity and metabolism. Effects on body weight, food intake, hematology and blood chemistries were the primary readouts of this study design. Male Sprague Dawley rats, approximately 8 weeks of age, were ordered from a certified vendor and housed on irradiated corncob bedding in micro-isolator cages, on a 12-hour light-dark cycle (0700-1900) at 68-74° F. and 30-70% humidity. Rats were fed Research Diets D12451 (45% High Fat) and provided water ad libitum. Rats were received and housed in the facility for at least two or three weeks prior to start of test article administration. On Day −4 or −3, rats were randomized into study groups based on body weight and body weights were continued to be recorded daily for the duration of the study. Daily food intake was assessed starting on Study Day −2 by weighing the hopper including the food to avoid loss of food in transfer.
as §1, with “for 11” for “for 10”, “All animals” for “All mice”, “11, approximately 2” for “11, 24”, “Day 11.” for “Day 10.”
as §2

[4] = Flag tagged human recombinant MetAP2, 25 minutes at 25° C., read-out: MetAP2 IC50

Structure (SMILES)	inhibition in vivo at 0.3 mg/kg [1]	Rat Embryofetal @6 mpk [2]	pIC50 (recombinant human MetAP2; [4])	inhibition in vivo at 0.3 mg/kg [3]	Rat @ 1.0 mpk sc (%) [3]	pIC50 (recombinant human MetAP2)
CO[C@@H]1[C@H](OC(=O)N2CC3(CCN(CC(F)F)CC3)C2)CC[C@]2(CO2)[C@H]1[C@@]1(C)O[C@@H]1CC=C(C)C [Example 9, (3R,4S,5S,6R)-5-methoxy-4-((2R,3R)-2-methyl-3-(3-methylbut-2-enyl)oxiran-2-yl)-1-oxaspiro[2.5]octan-6-yl 7-(2,2-difluoroethyl)-2,7-diazaspiro[3.5]nonane-2-carboxylate formate]	21.5%	Positive	6.30 to 7.30			
CO[C@@H]1[C@H](OC(=O)N2C[C@H]3CN(CC(F)F)C[C@H]3C2)CC[C@]2(CO2)[C@H]1[C@@]1(C)O[C@@H]1CC=C(C)C [Example 19, (3aR,6aS)-((3R,4S,5S,6R)-5-methoxy-4-((2R,3R)-2-methyl-3-(3-methylbut-2-enyl)oxiran-2-yl)-1-oxaspiro[2.5]octan-6-yl) 5-(2,2-difluoroethyl)hexahydropyrrolo[3,4-c]pyrrole-2(1H)-carboxylate]	22.6%		6.30 to 7.30	7.6%		
CO[C@@H]1[C@H](OC(=O)N2CCC3(CCOCC3)CC2)CC[C@]2(CO2)[C@H]1[C@@]1(C)O[C@@H]1CC=C(C)C [Example 1, (3R,4S,5S,6R)-5-methoxy-4-((2R,3R)-2-methyl-3-(3-methylbut-2-enyl)oxiran-2-yl)-1-oxaspiro[2.5]octan-6-yl 3-oxa-9-azaspiro[5.5]undecane-9-carboxylate]	17%		6.30 to 7.30	10.3%	16.3%	
CO[C@@H]1[C@H](OC(=O)N2CCC3(CCOCC3)C2)CC[C@]2(CO2)[C@H]1[C@@]1(C)O[C@@H]1CC=C(C)C [Example 27, (3R,4S,5S,6R)-5-methoxy-4-((2R,3R)-2-methyl-3-(3-methylbut-2-enyl)oxiran-2-yl)-1-oxaspiro[2.5]octan-6-yl 8-oxa-2-azaspiro[4.5]decane-2-carboxylate]	16.3%	Positive	6.30 to 7.30			
CO[C@@H]1[C@H](OC(=O)N2CCC3(CC2)COC3)CC[C@]2(CO2)[C@H]1[C@@]1(C)O[C@@H]1CC=C(C)C [Example 5, (3R,4S,5S,6R)-5-methoxy-4-((2R,3R)-2-methyl-3-(3-methylbut-2-enyl)oxiran-2-yl)-1-oxaspiro[2.5]octan-6-yl 2-oxa-7-azaspiro[3.5]nonane-7-carboxylate]	16.7%			6.6%		> 7.30
CO[C@@H]1[C@H](OC(=O)N2CCC3(CCOC3)CC2)CC[C@]2(CO2)[C@H]1[C@@]1(C)O[C@@H]1CC=C(C)C [Example 24, (3R,4S,5S,6R)-5-methoxy-4-((2R,3R)-2-methyl-3-(3-methylbut-2-enyl)oxiran-2-yl)-1-oxaspiro[2.5]octan-6-yl 2-oxa-8-azaspiro[4.5]decane-8-carboxylate]	20.5%		6.30 to 7.30	6.3%		
CO[C@@H]1[C@H](OC(=O)NC2CC3(C2)CN(C)C3)CC[C@]2(CO2)[C@H]1[C@@]1(C)O[C@@H]1CC=C(C)C [Example 10, (3R,4S,5S,6R)-5-methoxy-4-((2R,3R)-2-methyl-3-(3-methylbut-2-enyl)oxiran-2-yl)-1-oxaspiro[2.5]octan-6-yl 2-methyl-2-azaspiro[3.3]heptan-6-ylcarbamate formate]	8.4%		> 7.30	2%	7.2%	
CO[C@@H]1[C@H](OC(=O)N2CC3(CCOCC3)C2)CC[C@]2(CO2)[C@H]1[C@@]1(C)O[C@@H]1CC=C(C)C [Example 3, (3R,4S,5S,6R)-5-methoxy-4-((2R,3R)-2-methyl-3-(3-methylbut-2-enyl)oxiran-2-yl)-1-oxaspiro[2.5]octan-6-yl 7-oxa-2-azaspiro[3.5]nonane-2-carboxylate]	18.9%		> 7.30	7.9%		
CO[C@@H]1[C@H](OC(=O)N2CC3(CCOC3)C2)CC[C@]2(CO2)[C@H]1[C@@]1(C)O[C@@H]1CC=C(C)C [Example 6, (3R,4S,5S,6R)-5-methoxy-4-((2R,3R)-2-methyl-3-(3-methylbut-2-enyl)oxiran-2-yl)-1-oxaspiro[2.5]octan-6-yl 6-oxa-2-azaspiro[3.4]octane-2-carboxylate]	13.9%		> 7.30	2.7%		
CO[C@@H]1[C@H](OC(=O)N2CCC3(CCN(CC(F)F)CC3)CC2)CC[C@]2(CO2)[C@H]1[C@@]1(C)O[C@@H]1CC=C(C)C [Example 14, (3R,4S,5S,6R)-5-methoxy-4-((2R,3R)-2-methyl-3-(3-methylbut-2-enyl)oxiran-2-yl)-1-oxaspiro[2.5]octan-6-yl 9-(2,2-difluoroethyl)-3,9-diazaspiro[5.5]undecane-3-carboxylate]	23.3%			11.6%		

— US9944613B2, “Fumagillol spirocyclic compounds and fused bicyclic compounds and methods of making and using same” (Zafgen, Inc., priority 2015, dated 2018)
